The results in this text go back to ChEMBL document CHEMBL1201862, “PubChem BioAssay data set” (2004).

Test systems include HOP-92; HT-29; K562; KM12; LXFL 529; NCI-H226; NCI-H460; NCI-H522; OVCAR-8; RXF 393; SF-268; SF-539; SK-MEL-5; TK-10; UACC-62; DU-145; Hs-578T; MCF7; PC-3; NCI/ADR-RES.
What all share (assay): NCI-60 cell line screen, 48 h

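Method: 48-hour compound exposure of cells in 96-well plates, five concentrations, linear interpolation of endpoints. GI50 = concentration required for 50% inhibition of growth.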 Active and inactive are the calls of the source. Cut-off read from the data, not from the text of the source: active = GI50 up to about 1.1 µM and inactive = higher.

Consider `O=C1CCCCC1S(=O)(=O)c1ccccc1` (stereo unspecified), for which the GI50 in the assay on HOP-92, in the assay with HT-29, in the assay with K562, with KM12, in the assay on LXFL 529 and in the assay on NCI-H226 was > 100 µM (inactive) in each case. The GI50 in the assay with NCI-H460, in the assay with NCI-H522, with OVCAR-8, in the assay with RXF 393, in the assay on SF-268 and in the assay on SF-539 was > 100 µM (inactive) each time. In addition, the GI50 in the assay with SK-MEL-5, in the assay with TK-10 and in the assay with UACC-62 was > 100 µM (inactive) in each case.

`CCCCCCCCCCCCCCCCOCC(CN(C)CCN(C)C)OCCCCCCCCCCCCCCCC` (stereo unspecified): the GI50 in the assay on HOP-92, in the assay on HT-29, with K562, with KM12, in the assay on LXFL 529 and with NCI-H226 was > 100 µM (inactive) in each case. For the same molecule, the GI50 in the assay with NCI-H460, with NCI-H522, in the assay on OVCAR-8, in the assay with RXF 393, in the assay on SF-268 and in the assay with SK-MEL-5 was > 100 µM (inactive) throughout. Also, the GI50 in the assay on TK-10 and in the assay on UACC-62 was > 100 µM (inactive) throughout.

For the molecule `O=C(c1ccc(Cl)cc1)c1ccc(OCCCOc2ccc(C(=O)c3ccc(Cl)cc3)cc2Cl)c(Cl)c1`, the GI50 in the assay with HOP-92, with HT-29, with K562, in the assay with KM12, with LXFL 529 and with NCI-H226 was > 100 µM (inactive) throughout. The GI50 in the assay on NCI-H460, with NCI-H522, in the assay with OVCAR-8, in the assay with RXF 393, in the assay on SF-539 and in the assay on SK-MEL-5 was > 100 µM (inactive) throughout. For the same molecule, the GI50 in the assay with TK-10 and with UACC-62 was > 100 µM (inactive) in each case.

Consider `C=C1C(=O)OC2/C=C(\C)C3OC3/C=C(/C(=O)OC)C(OC(C)=O)C(OC(=O)C(C)(O)C(C)OC(C)=O)C12` (stereo unspecified), for which the GI50 in the assay with DU-145 was > 10 µM (inactive); with HOP-92, 1.9 µM (inactive); with HT-29 it was 1.29 µM (inactive); with Hs-578T, 6.21 µM (inactive); with K562, 0.741 µM (active); with KM12 it was 2.49 µM (inactive). The GI50 in the assay with LXFL 529 is 1.1 µM (active); in the assay with MCF7 it was 0.736 µM (active); in the assay with NCI-H226, 6.89 µM (inactive); with NCI-H460 it was 3.45 µM (inactive); in the assay with NCI-H522, 0.284 µM (active); with OVCAR-8, 1.4 µM (inactive). The GI50 was 3.96 µM (inactive) in the assay with PC-3; 0.501 µM (active) in the assay with RXF 393; 5.55 µM (inactive) in the assay with SF-268; 2.11 µM (inactive) in the assay with SF-539; 2.5 µM (inactive) in the assay on SK-MEL-5; 1.83 µM (inactive) in the assay with TK-10. In addition, in the assay on UACC-62, the GI50 was 1.7 µM (inactive).

For the molecule `NC(Cc1ccc2oc3cc(=O)c4ccccc4c-3nc2c1)C(=O)O` (stereo unspecified), the GI50 with DU-145 was 15.5 µM (inactive); in the assay on HOP-92, > 78.7 µM (inactive); in the assay on HT-29, 28.7 µM (inactive); in the assay on Hs-578T it was 11.7 µM (inactive); in the assay on K562, 34.2 µM (inactive); in the assay on KM12, 39.2 µM (inactive). Further, the GI50 in the assay on LXFL 529 was 55.5 µM (inactive); with MCF7, 2.86 µM (inactive); with NCI-H226, 27.3 µM (inactive); in the assay on NCI-H460 it was 11.5 µM (inactive); in the assay with NCI-H522, 39.8 µM (inactive); in the assay with NCI/ADR-RES, 47.4 µM (inactive). The GI50 with OVCAR-8 is 37.4 µM (inactive); with PC-3, > 83 µM (inactive); in the assay on RXF 393, 77.6 µM (inactive); in the assay on SF-268, 43 µM (inactive); with SF-539 it was 20.3 µM (inactive); in the assay on SK-MEL-5, 4.92 µM (inactive). For the same molecule, the GI50 with TK-10 is 69.7 µM (inactive); in the assay on UACC-62, 11.7 µM (inactive).

With `C/C(=N\N=C(N)N)c1sc(-c2nc(C)c(/C(C)=N/N=C(N)N)s2)nc1C`, the GI50 in the assay with HOP-92 was > 100 µM (inactive); in the assay with HT-29, > 66.8 µM (inactive); in the assay on K562 it was > 67.8 µM (inactive); in the assay on KM12 it was > 36.2 µM (inactive); in the assay on LXFL 529 it was > 88.3 µM (inactive); in the assay on NCI-H226, > 100 µM (inactive). The GI50 in the assay with NCI-H460 was > 62.5 µM (inactive); in the assay on NCI-H522, 36 µM (inactive); in the assay on OVCAR-8, > 100 µM (inactive); with RXF 393 it was > 45.4 µM (inactive); with SF-268, > 100 µM (inactive); with SF-539, > 100 µM (inactive). The GI50 in the assay with SK-MEL-5, with TK-10 and with UACC-62 was > 100 µM (inactive) throughout.

On to `C=C(C)C1Cc2c(cc(OC)c3c(=O)c4ccccc4n(C)c23)O1` (stereo unspecified), for which the GI50 in the assay on HOP-92 was > 100 µM (inactive); with HT-29, > 100 µM (inactive); in the assay with K562, 57.5 µM (inactive); in the assay on KM12 it was > 100 µM (inactive); with LXFL 529 it was > 100 µM (inactive); in the assay on NCI-H226 it was > 100 µM (inactive). Further, the GI50 with NCI-H460 was > 100 µM (inactive); in the assay with NCI-H522 it was 18.3 µM (inactive); in the assay with OVCAR-8, > 100 µM (inactive); with RXF 393 it was > 100 µM (inactive); in the assay with SF-268, > 100 µM (inactive); in the assay on SF-539 it was > 100 µM (inactive). Moreover, the GI50 in the assay with SK-MEL-5 is > 100 µM (inactive); in the assay with TK-10, > 100 µM (inactive); in the assay on UACC-62 it was 37.8 µM (inactive).

In the case of `C/C(CN1C(=O)c2ccccc2C1=O)=N\NS(=O)(=O)c1ccc(Br)cc1`, the GI50 with HOP-92 was 74.8 µM (inactive); in the assay on HT-29, > 100 µM (inactive); in the assay on K562, > 100 µM (inactive); in the assay on KM12 it was > 100 µM (inactive); with LXFL 529 it was > 100 µM (inactive); with NCI-H226, > 100 µM (inactive). Besides, the GI50 in the assay with NCI-H460, with NCI-H522, in the assay on OVCAR-8, in the assay on RXF 393, in the assay with SF-268 and with SF-539 was > 100 µM (inactive) each time. For the same molecule, the GI50 with SK-MEL-5, with TK-10 and in the assay with UACC-62 was > 100 µM (inactive) throughout.

Consider `COC(=O)C(C(=O)C(=O)Nc1ccc(OC)cc1[N+](=O)[O-])c1nc2cc(C)c(C)cc2nc1O` (stereo unspecified), for which the GI50 is > 100 µM (inactive) in the assay on HOP-92; > 100 µM (inactive) in the assay on HT-29; 31.6 µM (inactive) with K562; > 100 µM (inactive) in the assay with LXFL 529; > 100 µM (inactive) with NCI-H226; > 100 µM (inactive) with NCI-H460. The GI50 in the assay on NCI-H522, in the assay on OVCAR-8, with RXF 393, in the assay with SF-268, with SF-539 and with SK-MEL-5 was > 100 µM (inactive) in each case. Besides, the GI50 in the assay with TK-10 and in the assay with UACC-62 was > 100 µM (inactive) throughout.
